In patent US20230077362A1 (CORTEVA AGRISCIENCE LLC, priority 2019, published 2023):
Where two headings read alike, the source gives them in different places.

Experiments:
[1] = system: Beet Armyworm (Spodoptera exigua) ("BAW"), second instar larvae; assay: Bioassay on beet armyworm (BAW), 128-well diet tray assay; format: in vivo; details: for pest or weed control at 50 µg/cm2: Spodoptera exigua; for BAW rating: Table ABC, species BAW, C = not tested, D = no activity noticed
Method in brief: (§1)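 Each value represents average percent mortality from eight wells. Larvae were kept in clear-covered trays at 25° C. for five to seven days on a 14-hour light, 10-hour dark schedule before scoring.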

[2] = system: Cabbage Looper (Trichoplusia ni) ("CL"), second instar larvae; assay: Bioassay on cabbage looper (CL), 128-well diet tray assay; format: in vivo; details: for pest or weed control at 50 µg/cm2: Trichoplusia ni; for CL rating: Table ABC, species CL, C = not tested, D = no activity noticed
Method in brief: as §1

[3] = read-out: BAW (Biological Results, rating)
[4] = read-out: CL (Biological Results, rating)

## Cc1ccc(COCC(F)(F)F)c(N2C(=O)CS/C2=N\C(=O)Nc2ccc(-c3cn(-c4ccc(C(F)(F)F)cn4)cn3)cc2)c1 [Compound J521, (Z)-1-(3-(5-Methyl-2-((2,2,2-trifluoroethoxy)methyl)phenyl)-4-oxothiazolidin-2-ylidene)-3-(4-(1-(5-(trifluoromethyl)pyridin-2-yl)-1H-imidazol-4-yl)phenyl)urea]
[1]; read-out: BAW rating
  pest or weed control at 50 µg/cm2: 50 to 100%
[2]; read-out: CL rating
  pest or weed control at 50 µg/cm2: 50 to 100%

## CCOC(C)c1ccc(C)cc1N1C(=O)CS/C1=N\C(=O)Nc1ccc(-c2ncn(-c3ccc(OC(F)(F)F)cc3)n2)cc1F (stereo not drawn) [Compound J124, (Z)-1-(3-(2-(1-Ethoxyethyl)-5-methylphenyl)-4-oxothiazolidin-2-ylidene)-3-(2-fluoro-4-(1-(4-(trifluoromethoxy)phenyl)-1H-1,2,4-triazol-3-yl)phenyl)urea]
[1]; [3]
  pest or weed control at 50 µg/cm2: 50 to 100%
[2]; [4]
  pest or weed control at 50 µg/cm2: 50 to 100%

## CC(C)c1ccc(N(C)C)cc1N1C(=O)CS/C1=N\C(=O)Nc1ccc(-c2cn(-c3ccc(S(F)(F)(F)(F)F)cc3)cn2)cc1F [Compound J603, (Z)-1-(3-(5-(Dimethylamino)-2-isopropylphenyl)-4-oxothiazolidin-2-ylidene)-3-(2-fluoro-4-(1-(4-(pentafluoro-λ^6-sulfaneyl)phenyl)-1H-imidazol-4-yl)phenyl)urea]
[1]; read-out: BAW rating
  pest or weed control at 50 µg/cm2: 50 to 100%
[2]; read-out: CL rating
  pest or weed control at 50 µg/cm2: 50 to 100%

## CC(=O)c1cc(-c2ncn(-c3ccc(OC(F)(F)F)cc3)n2)ccc1NC(=O)/N=C1\SCC(=O)N1c1cc(C)ccc1COCC(F)(F)F [Compound J398, (Z)-1-(2-Acetyl-4-(1-(4-(trifluoromethoxy)phenyl)-1H-1,2,4-triazol-3-yl)phenyl)-3-(3-(5-methyl-2-((2,2,2-trifluoroethoxy)methyl)phenyl)-4-oxothiazolidin-2-ylidene)urea]
[1]; read-out: BAW rating
  pest or weed control at 50 µg/cm2: 50 to 100%
[2]; read-out: CL rating
  pest or weed control at 50 µg/cm2: 50 to 100%

## COC(c1ccc(C)cc1N1C(=O)CS/C1=N\C(=O)Nc1ccc(-n2cnc(-c3ccc(OC(F)(F)F)cc3)n2)cc1Cl)C(F)(F)F (stereo not drawn) [Compound J729, (Z)-1-(2-Chloro-4-(3-(4-(trifluoromethoxy)phenyl)-1H-1,2,4-triazol-1-yl)phenyl)-3-(3-(5-methyl-2-(2,2,2-trifluoro-1-methoxyethyl)phenyl)-4-oxothiazolidin-2-ylidene)urea]
[1]; read-out: BAW rating
  pest or weed control at 50 µg/cm2: 50 to 100%
[2]; read-out: CL rating
  pest or weed control at 50 µg/cm2: 50 to 100%

## CC(C)c1cc(-c2ncn(-c3ccc(OC(F)(F)F)cc3)n2)ccc1NC(=O)/N=C1\SCC(=O)N1c1cc(N(C)C)ccc1C(C)C [Compound J101, (Z)-1-(3-(5-(Dimethylamino)-2-isopropylphenyl)-4-oxothiazolidin-2-ylidene)-3-(2-isopropyl-4-(1-(4-(trifluoromethoxy)phenyl)-1H-1,2,4-triazol-3-yl)phenyl)urea]
[1]; [3]
  pest or weed control at 50 µg/cm2: 50 to 100%
[2]; [4]
  pest or weed control at 50 µg/cm2: 50 to 100%

## CCc1cc(-c2ncn(-c3ccc(OC(F)(F)F)cc3)n2)ccc1NC(=O)/N=C1\SCC(=O)N1c1cc(NC)ccc1C(C)C [Compound J157, (Z)-1-(2-Ethyl-4-(1-(4-(trifluoromethoxy)phenyl)-1H-1,2,4-triazol-3-yl)phenyl)-3-(3-(2-isopropyl-5-(methylamino)phenyl)-4-oxothiazolidin-2-ylidene)urea]
[1]; [3]
  pest or weed control at 50 µg/cm2: 50 to 100%
[2]; [4]
  pest or weed control at 50 µg/cm2: 50 to 100%

## N#CC(CNC(=O)/N=C1\SCC(=O)N1c1cc(Cl)ccc1C(F)(F)F)c1ccc(-c2ncn(-c3ccc(OC(F)(F)F)cc3)n2)cc1 (stereo not drawn) [Compound H8, (Z)-1-(3-(5-chloro-2-(trifluoromethyl)phenyl)-4-oxothiazolidin-2-ylidene)-3-(2-cyano-2-(4-(1-(4-(trifluoromethoxy)phenyl)-1H-1,2,4-triazol-3-yl)phenyl)ethyl)urea]
[1]; [3]
  pest or weed control at 50 µg/cm2: 50 to 100%
[2]; [4]
  pest or weed control at 50 µg/cm2: 50 to 100%

## Cc1ccc(OCCC(F)(F)F)c(N2C(=O)CS/C2=N\C(=O)Nc2ccc(-c3ncn(-c4ccc(C(F)(F)F)cc4)n3)cc2F)c1 [Compound J64, (Z)-1-(2-Fluoro-4-(1-(4-(trifluoromethyl)phenyl)-1H-1,2,4-triazol-3-yl)phenyl)-3-(3-(5-methyl-2-(3,3,3-trifluoropropoxy)phenyl)-4-oxothiazolidin-2-ylidene)urea]
[1]; [3]
  pest or weed control at 50 µg/cm2: 50 to 100%
[2]; [4]
  pest or weed control at 50 µg/cm2: 50 to 100%

## Cc1cccc(N2C(=O)CS/C2=N\C(=O)Nc2ccc(-c3ncn(-c4ccc(OC(F)(F)F)cc4)n3)cc2F)c1COCC(F)(F)F [Compound J566]
[1]
  BAW rating: A (50-100)
[2]
  CL rating: A (50-100)

## Cc1ccc(COCC(Cl)Cl)c(N2C(=O)CS/C2=N\C(=O)Nc2ccc(-c3ncn(-c4ccc(C(F)(F)F)cc4)n3)cc2F)c1 [Compound J559]
[1]
  BAW rating: A (50-100)
[2]
  CL rating: A (50-100)

## Cc1ccc(OCCC(F)(F)F)c(N2C(=O)CS/C2=N\C(=O)Nc2ccc(-c3cn(-c4ccc(C(F)(F)F)cn4)cn3)cc2)c1 [Compound J522, (Z)-1-(3-(5-Methyl-2-(3,3,3-trifluoropropoxy)phenyl)-4-oxothiazolidin-2-ylidene)-3-(4-(1-(5-(trifluoromethyl)pyridin-2-yl)-1H-imidazol-4-yl)phenyl)urea]
[1]; read-out: BAW rating
  pest or weed control at 50 µg/cm2: 50 to 100%
[2]; read-out: CL rating
  pest or weed control at 50 µg/cm2: 50 to 100%

## Cc1ccc(OCCC(F)(F)F)c(N2C(=O)CS/C2=N\C(=O)Nc2ccc(-c3cn(-c4ccc(C(F)(F)F)cn4)cn3)cc2C)c1 [Compound J512, (Z)-1-(3-(5-Methyl-2-(3,3,3-trifluoropropoxy)phenyl)-4-oxothiazolidin-2-ylidene)-3-(2-methyl-4-(1-(5-(trifluoromethyl)pyridin-2-yl)-1H-imidazol-4-yl)phenyl)urea]
[1]; read-out: BAW rating
  pest or weed control at 50 µg/cm2: 50 to 100%
[2]; read-out: CL rating
  pest or weed control at 50 µg/cm2: 50 to 100%

## Cc1ccc(COCC(F)(F)F)c(N2C(=O)CS/C2=N\C(=O)Nc2ccc(-c3ncn(-c4ccc(OC(F)(F)F)cn4)n3)cc2C(F)(F)F)c1 [Compound J274, (Z)-1-(3-(5-Methyl-2-((2,2,2-trifluoroethoxy)methyl)phenyl)-4-oxothiazolidin-2-ylidene)-3-(4-(1-(5-(trifluoromethoxy)pyridin-2-yl)-1H-1,2,4-triazol-3-yl)-2-(trifluoromethyl)phenyl)urea]
[1]; [3]
  pest or weed control at 50 µg/cm2: 50 to 100%
[2]; [4]
  pest or weed control at 50 µg/cm2: 50 to 100%

## CCCc1ccc(C)cc1N1C(=O)CS/C1=N\C(=O)Nc1ccc(-c2ncn(-c3ccc(S(F)(F)(F)(F)F)cc3)n2)cc1C(F)(F)F [Compound J628, (Z)-1-(3-(5-Methyl-2-propylphenyl)-4-oxothiazolidin-2-ylidene)-3-(4-(1-(4-(pentafluoro-λ^6-sulfaneyl)phenyl)-1H-1,2,4-triazol-3-yl)-2-(trifluoromethyl)phenyl)urea]
[1]; read-out: BAW rating
  pest or weed control at 50 µg/cm2: 50 to 100%
[2]; read-out: CL rating
  pest or weed control at 50 µg/cm2: 50 to 100%

## COCc1ccc(C)cc1N1C(=O)CS/C1=N\C(=O)Nc1ccc(-c2cn(-c3ccc(S(F)(F)(F)(F)F)cc3)cn2)cc1F [Compound J592, (Z)-1-(2-Fluoro-4-(1-(4-(pentafluoro-λ^6-sulfaneyl)phenyl)-1H-imidazol-4-yl)phenyl)-3-(3-(2-(methoxymethyl)-5-methylphenyl)-4-oxothiazolidin-2-ylidene)urea]
[1]; read-out: BAW rating
  pest or weed control at 50 µg/cm2: 50 to 100%
[2]; read-out: CL rating
  pest or weed control at 50 µg/cm2: 50 to 100%

## Cc1cc(COCC(F)(F)F)c(N2C(=O)CS/C2=N\C(=O)Nc2ccc(-c3ncn(-c4ccc(S(F)(F)(F)(F)F)cc4)n3)cc2C#N)cc1C [Compound J587, (Z)-1-(2-Cyano-4-(1-(4-(pentafluoro-λ^6-sulfaneyl)phenyl)-1H-1,2,4-triazol-3-yl)phenyl)-3-(3-(4,5-dimethyl-2-((2,2,2-trifluoroethoxy)methyl)phenyl)-4-oxothiazolidin-2-ylidene)urea]
[1]; read-out: BAW rating
  pest or weed control at 50 µg/cm2: 50 to 100%
[2]; read-out: CL rating
  pest or weed control at 50 µg/cm2: 50 to 100%

## Cc1cccc(N2C(=O)CS/C2=N\C(=O)Nc2ccc(-n3cnc(-c4ccc(C(F)(F)F)cc4)n3)cc2F)c1COCC(F)(F)F [Compound J704, (Z)-1-(2-Fluoro-4-(3-(4-(trifluoromethyl)phenyl)-1H-1,2,4-triazol-1-yl)phenyl)-3-(3-(3-methyl-2-((2,2,2-trifluoroethoxy)methyl)phenyl)-4-oxothiazolidin-2-ylidene)urea]
[1]; read-out: BAW rating
  pest or weed control at 50 µg/cm2: 50 to 100%
[2]; read-out: CL rating
  pest or weed control at 50 µg/cm2: 50 to 100%

## Cc1ccc(C(C)C)c(N2C(=O)CS/C2=N\C(=O)Nc2ccc(-c3ncn(-c4ccc(OC(F)(F)F)cc4)n3)c(C)c2)c1 [Compound J23, (Z)-1-(3-(2-Isopropyl-5-methylphenyl)-4-oxothiazolidin-2-ylidene)-3-(3-methyl-4-(1-(4-(trifluoromethoxy)phenyl)-1H-1,2,4-triazol-3-yl)phenyl)urea]
[1]; [3]
  pest or weed control at 50 µg/cm2: 50 to 100%
[2]; [4]
  pest or weed control at 50 µg/cm2: 50 to 100%

## O=C(/N=C1\SCC(=O)N1c1cc(F)ccc1COCC(F)(F)F)Nc1ccc(-c2ncn(-c3ccc(S(=O)(=O)C(F)(F)F)cc3)n2)cc1F [Compound J670, (Z)-1-(3-(5-Fluoro-2-((2,2,2-trifluoroethoxy)methyl)phenyl)-4-oxothiazolidin-2-ylidene)-3-(2-fluoro-4-(1-(4-((trifluoromethyl)sulfonyl)phenyl)-1H-1,2,4-triazol-3-yl)phenyl)urea]
[1]; read-out: BAW rating
  pest or weed control at 50 µg/cm2: 50 to 100%
[2]; read-out: CL rating
  pest or weed control at 50 µg/cm2: 50 to 100%

## Cc1ccc(COCC(F)(F)F)c(N2C(=O)CS/C2=N\C(=O)Nc2ccc(-c3ncn(-c4ccc(SC(F)(F)F)cc4)n3)cc2Cl)c1 [Compound J226, (Z)-1-(2-Chloro-4-(1-(4-((trifluoromethyl)thio)phenyl)-1H-1,2,4-triazol-3-yl)phenyl)-3-(3-(5-methyl-2-((2,2,2-trifluoroethoxy)methyl)phenyl)-4-oxothiazolidin-2-ylidene)urea]
[1]; [3]
  pest or weed control at 50 µg/cm2: 50 to 100%
[2]; [4]
  pest or weed control at 50 µg/cm2: 50 to 100%
